Test results as given in patent publication US6632981B1, “DNA sequences encoding polypeptides having beta-1,3-glucanase activity” (Novartis Finance Corporation, priority 1988, dated 2003).

What was measured:
chimeric PR-1a/GUS gene [1] = assay: GUS induction in transformed carrot callus; assay type: cell-based; conditions: carrot callus transformed by pCIB271; 50 mM sodium salicylate or 250 g/l methyl ester spray; 21 hours; H2O spray 5.2
Experimental: To surface sterilize the carrots they are peeled and then soaked 20 minutes in a 10% solution of chlorox. The carrots are rinsed with sterile water, sliced into 5 mm pieces and placed basal side up onto water agar. 20-50 l of bacteria are then applied to the upper surface of the discs. After 7 days the discs are transferred to 0.7% agar containing MS salts, 3% sucrose, 0.1 mg/l 2,4-D, […] kanamycin, 100 µg/ml carbenicillin, and 100 µg/ml mefoxin. Callus forming around the cambial ring is excised and placed on 0.7% MS agar supplemented with 3% sucrose, 0.1 mg/l 2,4-D, […] kanamycin, 100 µg/ml carbenicillin, and 100 µg/ml mefoxin. After the callus has been grown it is cut into small pieces and randomized onto four plates of the same media. […]
(§1) The reactions are carried out in the wells of ELISA plates by mixing 5-25 l extract with 120-100 l GUS assay buffer (50 mM sodium phosphate buffer pH 7.0, 0.1% Triton X-100, 10 mM β-mercaptoethanol) containing 4-methyl umbelliferyl glucuronide (MU) at a final concentration of 2 mM in a total volume of 125 l. […] The concentration of fluorescent indicator released is determined by reading the plate on a Flow Labs Fluoroskan II ELISA plate reader.

chimeric PR-1a/GUS gene [2] = assay: GUS induction in transformed tomato callus; assay type: cell-based; conditions: 250 g/l spray, 21 hours
Experimental: Agrobacterium strains containing the appropriate vectors as described above (e.g. CIB270, CIB271, CIB272, CIB273, pCIB271×15955, pCIB271 X A208, pCIB271 X A281, pCIB271 X A4, pCIB272 X 15955, pCIB272 X A208, pCIB272 X A281, pCIB272 X A4, pCIB273 X 15955, pCIB273 X A208, pCIB273 X A281, and pCIB273 X A4) are grown as described in Example 112. The bacteria, diluted to an OD600 of 0.2-0.4, are then used for inoculation of stems of tomato seedlings prepared as described below.
Tomato seeds are soaked 20 min in 10% chlorox and rinsed with sterile water. […]
After one week the inoculated stems are cut and placed on 0.7% agar containing MS salts, 3% sucrose, […] 6-benzylaminopurine, 100 µg/ml carbenicillin, 100 µg/ml mefoxim, and 50 µg/ml kanamycin. […] The callus is transferred to fresh media every two weeks until sufficient quantity is obtained for 4 plates. […]
as §1

chimeric PR-1a/GUS gene [3] = assay: Transient GUS expression in tobacco protoplasts treated with pCIB269; assay type: cell-based, N. tabacum; conditions: H2O 30.6 13
Experimental: B. DNA is introduced into protoplasts by a modification of the method of Negrutiu, I. et al., Plant Mol. Biol. 8: 363 (1987). The protoplasts prepared as described in part A are resuspended following the last washing step in a solution consisting of 0.4 M mannitol, 15-30 mM CaCl2, 0.1% w/v MES at a density of 1.6-2×10^6 per ml. The protoplast suspension is distributed as 0.5 ml aliquots into 10 ml plastic centrifuge tubes. DNA such as that described in Examples 28 to 40 is added in 10 l sterile distilled water, sterilized as described by Paszkowski, J. et al., EMBO J. 3: 2717 (1984), and then 0.5 ml of the PEG solution (40% (w/v) PEG MW 8000 in 0.4 M mannitol, 0.1 M Ca(NO3)2, pH 7.0) is added. The solutions are mixed gently and incubated for 30 minutes at room temperature (about 24° C.) with occasional shaking. 1 ml of the wash solution is then added, and the contents of the tube gently mixed. […]
as §1

With `COC(=O)c1cccc2nnsc12` [Methyl benzo-1,2,3-thiadiazole-7-carboxylate] as the compound, how does the GUS activities (chimeric PR-1a/GUS gene [1]) read?
The GUS activities was 22.1 pKat MU/mg protein.

What about the GUS activities (chimeric PR-1a/GUS gene [2]; tomato callus transformed with CIB271, H2O spray 17.2) of the same compound?
The GUS activities was 56.1 pKat MU/mg protein.

What about the GUS activities (chimeric PR-1a/GUS gene [2]; tomato callus transformed with CIB273 X A4, H2O spray 4.6) of the same compound?
Its GUS activities is 22.1 pKat MU/mg protein.

What about the “GUS activity, transient expression” value (chimeric PR-1a/GUS gene [3]) of the same compound?
Its value is 66.6 pKat MU/mg protein.

With `O=C(O)c1ccccc1O` [Salicylic acid, salicylic acid] as the compound, how does the GUS activities (chimeric PR-1a/GUS gene [1]) read?
The GUS activities was 11.6 pKat MU/mg protein.
